According to patent US20040204596A1, “Method for the preparation of unsaturated hydroxy fatty acids and their esters, their use in pharmaceutical and/or cosmetic preparations” (Pierre Potier, priority 2001, published 2004):
Several values for one entry are separate records, joined by “and”; a condition that tells them apart may be missing. Identical values can stand only once.

What was measured:
collagenase [1] = assay: Anticollagenase activity on human skin explants maintained in survival state; assay type: cell-based
Description: The study was performed on a 5% GM product in comparison with the excipient (hydrocerin), a positive control and a control in the presence of collagenase at 100 U/ml.
Hydrocerin was used as the excipient for the preparation of the product to be applied. This study was performed twice. […] In the second study, the study time was extended and the collection of the explants was performed on Day 2 and on Day 4.
Human skin explants prepared and distributed into 16 lots of three explants each were placed in survival state according to Table 3.
The product was applied on Day 0 and on Day 2 at the rate of 20 mg per explant and collagenase was incorporated into the culture medium of the […].
Three explants of each lot were collected on Day 2 and on Day 4, fixed in ordinary Bouin's fixative and subjected to histological processing.
The histological study comprised:
impregnation in paraffin,
staining with Sirius red F3B,
calorimetric measurements of the collagen by image analysis,
comparison with photographs.
For this reason, the survival, the contact and the application were extended to Day 4. The collagenase action was monitored in two ways: intensity of the coloration of the collagen network and thickness of the dermal structure. With this study, penetration of the active principle and its inhibitory activity were correlated in relation to collagenase.

adipose tissue explants = assay: Lipolytic activity on adipose tissue explants ex vivo (lipids released in culture medium, TLC; histology); assay type: cell-based
Description: DHA was incorporated in the culture medium at a final concentration of 0.25 and 0.5%. After 8 days of contact, the activity was evaluated by quantitative determination of the lipids distributed in the culture medium.
Twelve adipose tissue explants (plasty P202-AB31) were prepared and placed in survival state in BEM medium (BIO-EC's Explants Medium). The explants were distributed in 4 lots of 3 explants:
one positive control lot (caffeine at 0.1%),
two product lots (DHA at 0.25 and 0.5%).
On Day 0, the explants were placed in survival state in 2 ml of culture medium, in which the product to be tested was incorporated.
This treatment was renewed on Day 2, Day 4 and Day 6.
On Day 2, Day 4, Day 6 and Day 8, the culture medium was collected. For each explant, the media collected on Day 2, Day 4, Day 6 and Day 8 were grouped together in the same tube and preserved at −20° C. for quantitative determination of the lipids.
On Day 8, the adipose tissue explants were collected and fixed in ordinary Bouin's fixative for the histological study.
The fixed adipose tissue explants were dehydrated, impregnated with paraffin, but in block form, sectioned and stained with Masson's trichrome.
After extraction of the culture medium, the lipids were separated and quantitatively determined by TLC.
The viability and morphology of the adipocytes was monitored by the histologic study.
The lipolytic activity was evaluated by analysis of the proportions of monoglycerides, diglycerides, triglycerides and free fatty acids.
The results are expressed in mass (μg) of each category of lipid released in the culture medium during the 8 days of treatment.
Table 5 below represents the statistical analysis using Student's test of the results of the quantitative determination of the fatty acids released in the culture medium during the 8 days of treatment.

collagenase [2] = assay: Anticollagenase activity on frozen sections of human skin (picrosirius staining); assay type: biochemical; parameters: key to Alteration of the collagen structure: 0: An absence of alteration of the collagen structure; 1: somewhat; 2: markedly to very strongly altered collagen structure; conditions: for Alteration of the collagen structure: frozen human skin sections, 2 hours at 37° C.; for inhibition of the activity of collagenase: collagenase 30 U/ml
Description: This example was performed with different solutions at concentrations of 1 and 2% of active principles in comparison with the excipient alone, buffer controls and collagenase. The active principles used were DHA, the 2-dimethylamino ethyl ester of trans-10-hydroxy-2-decenoic acid (ML40) and the glycerol ester of trans-10-hydroxy-2-decenoic acid (GM).
Frozen 5-μm-thick sections from a mammary plasty of a person were placed on histological slides (4 sections per slide). Each solution was tested on one slide.
The sections were covered with the solutions to be tested then incubated for 2 hours at 37° C. in a humid chamber. The solutions were eliminated by repeated rinsings and the sections were stained with picrosirius. Microscopic examination was performed with the 2.5 objective and paper photographs were taken with Kodak Gold 100 ASA film.
Table 2 summarizes the results of alteration of the collagen structure as a function of the tested solution. An absence of alteration of the collagen structure is indicated by 0 while a somewhat or markedly to very strongly altered collagen structure is indicated, respectively, by 1 or 2.

[3] = tested on: cutaneous 5-alpha-reductase; assay: Inhibition of cutaneous 5-alpha-reductase activity; assay type: biochemical
Excerpt: DHA is capable of inhibiting cutaneous 5-alpha-reductase, the enzyme responsible for the production of di-hydro-testosterone. Treatment with 0.1% of DHA and treatment with 0.5% of DHA reduced by about 70% and about 90%, respectively, the 5-alpha-reductase activity compared to an untreated control. This inhibition results in a considerable reduction of the sebum level.

[4] = caffeine 0.1%, 8 days of treatment
[5] = 1% active principle + collagenase 30 U/ml
[6] = 1% active principle, no collagenase
[7] = 2% active principle + collagenase 30 U/ml
[8] = 2% active principle, no collagenase
[9] = product containing 5% of GM in hydrocerin, 20 mg per explant on Day 0 and Day 2, collagenase 100 U/ml, Day 4
[10] = DHA at 0.25%, 8 days of treatment
[11] = DHA at 0.5%, 8 days of treatment

Structure (SMILES): c1cnc2c(c1)ccc1cccnc12 [phenanthroline, reference compound]
- dermal structure (collagenase [1]; positive control + collagenase 100 U/ml, Day 4): the same as that of the controls without collagenase

Structure (SMILES): Cn1c(=O)c2c(ncn2C)n(C)c1=O [Caffeine, caffeine, reference compound]
- % augmentation/Control of fatty acids released (adipose tissue explants; [4]): 2780.6%
- Diglycerides released in the culture medium, Mean (adipose tissue explants; [4]): 0.02 µg
- Fatty acids released in the culture medium, Mean (adipose tissue explants; [4]): 27.99 µg
- Monoglycerides released in the culture medium, Mean (adipose tissue explants; [4]): 1.22 µg
- Triglycerides released in the culture medium, Mean (adipose tissue explants; [4]): 197.34 µg
- fatty acids released in the culture medium, individual explants (adipose tissue explants; [4]): 33.89 µg and 24.10 µg and 25.97 µg
- % augmentation/Control of fatty acids released (adipose tissue explants; caffeine 0.1%, 8 days of treatment, listed as caffeine): 2780%
- augmentation factor of fatty acids released compared to the untreated control (adipose tissue explants; caffeine at 0.1%, 8 days of treatment): about 29

Structure (SMILES): O=C(/C=C/CCCCCCCO)OCC(O)CO (stereo not drawn) [GM, glycerol ester of trans-10-hydroxy-2-decenoic acid]
- Alteration of the collagen structure (collagenase [2]; [5]): 2
- Alteration of the collagen structure (collagenase [2]; [6]): 0
- Alteration of the collagen structure (collagenase [2]; [7]): 1
- Alteration of the collagen structure (collagenase [2]; [8]): 0
- inhibition of the activity of collagenase (collagenase [2]; 2%): only slightly inhibited
- anticollagenase activity (collagenase [1]; 5% GM product, human skin explants, collagenase 100 U/ml): pronounced anticollagenase activity
- degradation of the collagen bundles (collagenase [1]; [9]): very slightly degraded
- thickness of the dermis (collagenase [1]; [9]): diminished slightly

Structure (SMILES): CN(C)CCOC(=O)/C=C/CCCCCCCO [ML40, 2-dimethylamino ethyl ester of trans-10-hydroxy-2-decenoic acid]
- Alteration of the collagen structure (collagenase [2]; [5]): 2
- Alteration of the collagen structure (collagenase [2]; [6]): 0
- Alteration of the collagen structure (collagenase [2]; [7]): 1
- Alteration of the collagen structure (collagenase [2]; [8]): 0
- inhibition of the activity of collagenase (collagenase [2]; 2%): only slightly inhibited

Structure (SMILES): O=C(O)/C=C/CCCCCCCO [DHA, trans-10-hydroxy-2-decenoic acid]
- reduction of 5-alpha-reductase activity compared to an untreated control ([3]; treatment with 0.1% of DHA): about 70%
- reduction of 5-alpha-reductase activity compared to an untreated control ([3]; treatment with 0.5% of DHA): about 90%
- Alteration of the collagen structure (collagenase [2]; [5]): 0
- Alteration of the collagen structure (collagenase [2]; [6]): 0
- inhibition of the activity of collagenase (collagenase [2]; 1%): inhibited completely
- Alteration of the collagen structure (collagenase [2]; [7]): 0
- Alteration of the collagen structure (collagenase [2]; [8]): 0
- inhibition of the activity of collagenase (collagenase [2]; 2%): inhibited completely
- lipolytic activity (Student's test) (adipose tissue explants; DHA applied at 0.25%): significant lipolytic activity
- lipolytic activity (Student's test) (adipose tissue explants; DHA applied at 0.5%): significant lipolytic activity
- % augmentation/Control of fatty acids released (adipose tissue explants; [10]): 1075% and 1075.6%
- Diglycerides released in the culture medium, Mean (adipose tissue explants; [10]): 0.00 µg
- Fatty acids released in the culture medium, Mean (adipose tissue explants; [10]): 11.42 µg
- Monoglycerides released in the culture medium, Mean (adipose tissue explants; [10]): 3.64 µg
- Triglycerides released in the culture medium, Mean (adipose tissue explants; [10]): 156.15 µg
- fatty acids released in the culture medium, individual explants (adipose tissue explants; [10]): 9.95 µg and 11.67 µg and 12.66 µg
- % augmentation/Control of fatty acids released (adipose tissue explants; [11]): 1087% and 1086.8%
- Diglycerides released in the culture medium, Mean (adipose tissue explants; [11]): 0.00 µg
- Fatty acids released in the culture medium, Mean (adipose tissue explants; [11]): 11.53 µg
- Monoglycerides released in the culture medium, Mean (adipose tissue explants; [11]): 7.06 µg
- Triglycerides released in the culture medium, Mean (adipose tissue explants; [11]): 202.56 µg
- fatty acids released in the culture medium, individual explants (adipose tissue explants; [11]): 12.81 µg and 11.64 µg and 10.14 µg
- maximum effective dose (lipolytic effect) (adipose tissue explants; adipose tissue explants, 8 days): ~0.25%
